Measured values: patent publication EP0061907A1, “Secondary amines, their preparation, pharmaceutical compositions containing them and their use” (BEECHAM GROUP PLC, priority 1981, dated 1982)

Key:
Assay type in all cases: in vivo
[1] = tested on: Female CFLP mice; experiment: Hypoglycaemic activity: blood glucose curve after subcutaneous glucose load in fasted mice; conditions: 2 hour period after glucose 1 g/kg s.c., compared with control mice given water
Procedure: Female CFLP mice, weighing approx. 25 g, were fasted for 24 hours prior to the study. The compounds under study were administered orally as an aqueous solution to each of 6 mice. 30 Minutes later a blood sample ([…]) was obtained from the tail for the analysis of blood glucose. Immediately after taking the blood sample, glucose (1 g/kg body weight) was administered subcutaneously to each mouse. 6 Mice were given water as a control. Blood samples were then obtained from each mouse at 30 minute intervals for 120 minutes. Compounds that produced a significant (P<0.05) reduction on blood glucose, compared with control mice given water, at any time interval, were considered active. The area under the blood glucose curve over the 2 hour period after the administration of the glucose was calculated for each compound and compared with the value for control animals.

[2] = tested on: genetically obese mice; experiment: Anti-obesity activity: carcass lipid of genetically obese mice after daily oral dosing for 28 days
Procedure: The compounds were administered by oral gavage in water or carboxymethyl-cellulose suspension to genetically obese mice daily for 28 days. At the end of the time the carcass composition was determined.

[3] = tested on: Male CFLP mice; experiment: Platelet aggregation inhibition activity: response of blood platelet concentration to intravenous collagen in mice; conditions: two hours before intravenous collagen
Procedure: Male CFLP mice (ca 20g, n=11 or 12) were dosed orally with compound or vehicle (controls) after an overnight fast. Two hours later each mouse received an intravenous dose of collagen ([…], pH 6-6.6). Exactly 30 sec. after injection of collagen, each mouse was placed in a chamber of C02 until respiration ceased. […] Each concentration was expressed as a per cent of that obtained in a tail blood sample taken immediately before injection of collagen.

[4] = tested on: rat ear; experiment: Anti-inflammatory activity: croton oil induced inflammation of the rat ear; conditions: topical in irritant vehicle, ear weight after 6 hours, active = significant (5% level) reduction in ear weight vs non-drug treated control
Procedure: The method used is based on that described by G. Tonelli et al (Endocrinology, 77, 625-634, 1965). An inflammation is induced in the rat ear by the application of 50 µl of a 1% solution of croton oil in tetrahydrofuran, test compounds being dissolved in the irritant vehicle. After 6 hours the inflammation is assessed by killing the animals and weighing the ears. Topical anti-inflammatory activity of a compound is generally considered to be shown when a significant (5% level) reduction in ear weight is seen compared to non-drug treated control.

CNCCCCc1ccc(CC(C)NCC(O)c2cccc(Cl)c2)cc1 (stereo not shown) [Example 27, N-(2-(4-(4-N'-Methylaminobutyl)phenyl)-1-methylethyl)-2-hydroxy-2-(3-chlorophenyl) ethanamine]
REDUCTION IN AREA UNDER BLOOD GLUCOSE CURVE (%) ([1]; 2.5 µ mol/kg orally): 10%

CNCc1ccc(CC(C)NCC(O)c2cccc(Br)c2)cc1 (stereo not shown) [Example 12, N-(2-(4-N'-Methylaminomethylphenyl)-1-methylethyl)-2-hydroxy-2-(3-bromophenyl) ethanamine]
g LIPID/MOUSE TREATED ([2]; 12.5 mg/kg p.o. daily for 28 days, control 24.60): 20.38 g | REDUCTION IN AREA UNDER BLOOD GLUCOSE CURVE (%) ([1]; 2.5 µ mol/kg orally): 37%

CC(Cc1ccc(CN)cc1)NCC(O)c1ccccc1 (stereo not shown) [Example 1, N-(2-(4-Aminomethylphenyl)-1-methylethyl)-2-hydroxy-2-phenylethanamine]
g LIPID/MOUSE TREATED ([2]; 6.25 mg/kg p.o. daily for 28 days, control 21.52): 17.98 g | REDUCTION IN AREA UNDER BLOOD GLUCOSE CURVE (%) ([1]; 2.5 µ mol/kg orally): 29%

CC(=O)Oc1ccccc1C(=O)O [Aspirin, reference compound]
% Inhibition of re-sponse to collagen ([3]; 600(108) µmol(mg)/kg p.o.): 29 p<0.05%

CC(Cc1ccc(CN(C)C)cc1)NCC(O)c1cccc(C(F)(F)F)c1 (stereo not shown) [Example 4, N-(2-(4-N'N'-Dimethylaminomethylphenyl)-1-methylethyl)-2-hydroxy-2-(3-trifluoromethylphenyl) ethanamine]
REDUCTION IN AREA UNDER BLOOD GLUCOSE CURVE (%) ([1]; 12.5 µ mol/kg orally): 31%

CNCCCCCCc1ccc(CC(C)NCC(O)c2cccc(Cl)c2)cc1 (stereo not shown) [Example 26, N-(2-(4-(6-N'-Methylaminohexyl)phenyl)-1-methylethyl)-2-hydroxy-2-(3-chlorophenyl) ethanamine]
REDUCTION IN AREA UNDER BLOOD GLUCOSE CURVE (%) ([1]; 2.5 µ mol/kg orally): 53%

CNC(C)Cc1ccc(CC(C)NCC(O)c2cccc(Cl)c2)cc1 (stereo not shown) [Example 25, N-(2-(4-(2-N'-Methylaminopropyl)phenyl)-1-methylethyl) -2-hydroxy-2-(3-chlorophenyl)ethanamine]
REDUCTION IN AREA UNDER BLOOD GLUCOSE CURVE (%) ([1]; 2.5 µ mol/kg orally): 41%

CNCc1ccc(CC(C)NCC(O)c2cccc(F)c2)cc1 (stereo not shown) [Example 9, N-(2-(4-N'-Methylaminomethylphenyl)-1-methylethyl)-2-hydroxy-2-(3-fluorophenyl) ethanamine]
g LIPID/MOUSE TREATED ([2]; 10.8 mg/kg p.o. daily for 28 days, control 22.95): 20.63 g

CNCc1ccc(CC(C)NCC(O)c2ccccc2)cc1 (stereo not shown) [Example 7, N-(2-(4-N'-Methylaminomethylphenyl)-1-methylethyl)-2-hydroxy-2-phenylethanamine]
g LIPID/MOUSE TREATED ([2]; 9.9 mg/kg p.o. daily for 28 days, control 23.13): 20.56 g

CNCCCc1ccc(CC(C)NCC(O)c2cccc(C(F)(F)F)c2)cc1 (stereo not shown) [Example 14, N-(2-(4-(3-N'-Methylaminopropyl)phenyl)-1-methylethyl)-2-hydroxy-2-(3-trifluoromethylphenyl) ethanamine]
REDUCTION IN AREA UNDER BLOOD GLUCOSE CURVE (%) ([1]; 12.5 µ mol/kg orally): 46%

CC(Cc1ccc(CN)cc1)NCC(O)c1cccc(C(F)(F)F)c1 (stereo not shown) [Example 2, N-(2-(4-Aminomethylphenyl)-1-methylethyl)-2-hydroxy-2-(3-trifluoromethylphenyl) ethanamine]
g LIPID/MOUSE TREATED ([2]; 11.8 mg/kg p.o. daily for 28 days, control 25.09): 20.87 g | REDUCTION IN AREA UNDER BLOOD GLUCOSE CURVE (%) ([1]; 2.5 µ mol/kg orally): 24% | ACTIVITY ([4]; 0.5 mg/rat ear): Active | % Inhibition of re-sponse to collagen ([3]; 10 µmol/kg p.o.): 29 p<0.01%

CC(Cc1ccc(CN)cc1)NCC(O)c1cccc(Cl)c1 (stereo not shown) [Example 6, N-(2-(4-Aminomethylphenyl}-1-methylethyl)-2-hydroxy-2-(3-chlorophenyl) ethanamine]
g LIPID/MOUSE TREATED ([2]; 10.9 mg/kg p.o. daily for 28 days, control 18.75): 17.38 g

CNCc1ccc(CC(C)NCC(O)c2cccc(C(F)(F)F)c2)cc1 (stereo not shown) [Example 3, N-(2-(4-N'-Mcthylaminomethylphenyl)-1-methylethyl)-2-hydroxy-2-(3-trifluoromethylphenyl) ethanamine]
g LIPID/MOUSE TREATED ([2]; 12.2 mg/kg p.o. daily for 28 days, control 20.98): 18.56 g | % Inhibition of re-sponse to collagen ([3]; 10 µmol/kg p.o.): 25 p<0.02%

CN[C@H](C)c1ccc(CC(C)NCC(O)c2cccc(Cl)c2)cc1 (stereo partly drawn) [Example 24, N-(2-(4-(1-(R)-N'-Methylaminoethyl)phenyl)-1-methylethyl) -2-hydroxy-2-(3-chlorophenyl)ethanamine]
REDUCTION IN AREA UNDER BLOOD GLUCOSE CURVE (%) ([1]; 50 µ mol/kg orally): 17%

CCc1cccc(C(O)CNC(C)Cc2ccc(CNC)cc2)c1 (stereo not shown) [Example 10, N-(2-(4-N'Methylaminomethylphenyl)-1-methylethly)-2-hdroxy-2-(3-ethylphenyl) ethanamine]
REDUCTION IN AREA UNDER BLOOD GLUCOSE CURVE (%) ([1]; 100.0 µ mol/kg orally): 49%

CN[C@@H](C)c1ccc(CC(C)NCC(O)c2cccc(Cl)c2)cc1 (stereo partly drawn) [Example 23, N-(2-(4-(1-(S)-N'-Methylaminoethyl)phenyl)-1-methylethyl)-2-hydroxy-2-(3-chlorophenyl)ethanamine]
REDUCTION IN AREA UNDER BLOOD GLUCOSE CURVE (%) ([1]; 50 µ mol/kg orally): 26%

CNCc1ccc(C[C@@H](C)NC[C@H](O)c2cccc(C(F)(F)F)c2)cc1 (racemic) [Example 15, (RR,SS) N-(2-(4-N'-Methylaminomethylphenyl)-1-methylethyl)-2-hydroxy-2-(3-trifluoromethylphenyl) ethanamine]
REDUCTION IN AREA UNDER BLOOD GLUCOSE CURVE (%) ([1]; 2.5 µ mol/kg orally): 19%

CNCc1ccc(C[C@@H](C)NC[C@H](O)c2cccc(Cl)c2)cc1 (racemic) [Example 16, (RR,SS) N-(2-(4-N'-Methylaminomethylphenyl)-1-methylethyl) -2-hydroxy-2-(3-chlorophenyl) ethanamine]
g LIPID/MOUSE TREATED ([2]; 11.3 mg/kg p.o. daily for 28 days, control 22.55): 16.03 g | REDUCTION IN AREA UNDER BLOOD GLUCOSE CURVE (%) ([1]; 2.5 µ mol/kg orally): 33%

CNCc1ccc(CC(C)NCC(O)c2cccc(Cl)c2)cc1 (stereo not shown) [Example 8, N-(2-(4-N'-Methylaminomethylphenyl)-1-methylethyl)-2-hydroxy-2-(3-chlorophenyl) ethanamine]
REDUCTION IN AREA UNDER BLOOD GLUCOSE CURVE (%) ([1]; 12.5 µ mol/kg orally): 52% | ACTIVITY ([4]; 2 mg/rat ear): Active | % Inhibition of re-sponse to collagen ([3]; 10 µmol/kg p.o.): 37 p<0.001%
